Read-outs that look alike come from different tables or passages of the source.
Tests used:
hMAO-A = molecular target: T1, hMAO-A (Homo sapiens, UniProt P21397); assay: MAO-A inhibition, fluorometric method; type: biochemical
T1 sequence (P21397 1-527): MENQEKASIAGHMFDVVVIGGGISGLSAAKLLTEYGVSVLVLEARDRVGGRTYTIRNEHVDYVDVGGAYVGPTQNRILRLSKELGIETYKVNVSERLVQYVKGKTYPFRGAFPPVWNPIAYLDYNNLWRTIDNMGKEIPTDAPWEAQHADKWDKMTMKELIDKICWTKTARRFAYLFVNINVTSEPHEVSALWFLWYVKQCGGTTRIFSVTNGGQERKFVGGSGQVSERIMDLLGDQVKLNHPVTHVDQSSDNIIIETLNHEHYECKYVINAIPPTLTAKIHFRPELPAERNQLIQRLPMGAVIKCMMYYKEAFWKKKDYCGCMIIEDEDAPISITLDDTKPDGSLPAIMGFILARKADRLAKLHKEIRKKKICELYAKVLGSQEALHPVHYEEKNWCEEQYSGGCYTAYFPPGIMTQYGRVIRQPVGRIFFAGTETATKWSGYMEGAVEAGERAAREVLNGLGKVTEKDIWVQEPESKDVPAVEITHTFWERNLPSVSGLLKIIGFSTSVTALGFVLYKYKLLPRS

COX-2 = molecular target: T2, COX-2 (Homo sapiens, UniProt P35354); assay: biochemical; type: biochemical
T2 sequence (P35354 18-604): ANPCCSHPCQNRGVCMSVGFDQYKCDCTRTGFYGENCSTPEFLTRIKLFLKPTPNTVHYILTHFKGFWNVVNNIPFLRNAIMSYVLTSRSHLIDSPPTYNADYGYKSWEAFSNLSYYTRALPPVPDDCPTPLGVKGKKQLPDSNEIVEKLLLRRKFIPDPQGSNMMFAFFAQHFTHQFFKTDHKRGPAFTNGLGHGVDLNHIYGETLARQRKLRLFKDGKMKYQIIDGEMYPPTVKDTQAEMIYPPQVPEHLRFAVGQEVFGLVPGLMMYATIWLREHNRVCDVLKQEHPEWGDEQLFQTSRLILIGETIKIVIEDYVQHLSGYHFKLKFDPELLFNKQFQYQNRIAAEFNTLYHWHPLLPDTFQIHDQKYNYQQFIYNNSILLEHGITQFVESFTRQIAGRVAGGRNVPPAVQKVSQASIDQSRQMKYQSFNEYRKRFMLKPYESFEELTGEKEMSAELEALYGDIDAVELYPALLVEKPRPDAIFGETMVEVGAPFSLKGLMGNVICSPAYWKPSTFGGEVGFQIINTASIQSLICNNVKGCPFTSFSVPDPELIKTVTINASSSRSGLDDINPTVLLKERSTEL

[1] = PAMPA-BBB permeation assay; details: for Papp at 20 h: PAMPA, pH 7.4; for Prediction (PAMPA-BBB) (CNS+, CNS−): class from Pe
[2] = In vivo acute toxicity study; details: doses ranging from 50 to 2000 mg kg^−1 body weight
eqBChE = eqBChE (Equus caballus, UniProt P81908); assay: BChE inhibition, modified Ellman's method; type: biochemical, Equine
Chain of eqBChE (P81908 whole entry): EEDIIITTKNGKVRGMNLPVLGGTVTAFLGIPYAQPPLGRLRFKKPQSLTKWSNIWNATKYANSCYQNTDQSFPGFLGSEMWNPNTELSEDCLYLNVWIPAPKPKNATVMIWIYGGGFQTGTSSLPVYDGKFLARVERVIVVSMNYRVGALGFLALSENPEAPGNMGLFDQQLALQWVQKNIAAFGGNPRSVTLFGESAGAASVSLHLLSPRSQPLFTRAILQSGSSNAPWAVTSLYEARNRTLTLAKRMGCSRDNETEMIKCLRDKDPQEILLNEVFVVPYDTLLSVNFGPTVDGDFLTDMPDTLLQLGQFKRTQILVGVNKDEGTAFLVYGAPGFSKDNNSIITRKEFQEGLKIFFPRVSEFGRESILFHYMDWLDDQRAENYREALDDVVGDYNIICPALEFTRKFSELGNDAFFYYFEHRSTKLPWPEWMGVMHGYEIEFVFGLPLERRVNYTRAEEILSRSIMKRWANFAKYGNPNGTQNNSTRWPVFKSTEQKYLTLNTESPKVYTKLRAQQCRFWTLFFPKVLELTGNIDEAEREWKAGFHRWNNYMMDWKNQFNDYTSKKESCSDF

5-LOX = molecular target: T3, 5-LOX (Glycine max, UniProt P08170); assay: 5-LOX inhibition assay; type: biochemical, soybean
T3 sequence (P08170 1-839): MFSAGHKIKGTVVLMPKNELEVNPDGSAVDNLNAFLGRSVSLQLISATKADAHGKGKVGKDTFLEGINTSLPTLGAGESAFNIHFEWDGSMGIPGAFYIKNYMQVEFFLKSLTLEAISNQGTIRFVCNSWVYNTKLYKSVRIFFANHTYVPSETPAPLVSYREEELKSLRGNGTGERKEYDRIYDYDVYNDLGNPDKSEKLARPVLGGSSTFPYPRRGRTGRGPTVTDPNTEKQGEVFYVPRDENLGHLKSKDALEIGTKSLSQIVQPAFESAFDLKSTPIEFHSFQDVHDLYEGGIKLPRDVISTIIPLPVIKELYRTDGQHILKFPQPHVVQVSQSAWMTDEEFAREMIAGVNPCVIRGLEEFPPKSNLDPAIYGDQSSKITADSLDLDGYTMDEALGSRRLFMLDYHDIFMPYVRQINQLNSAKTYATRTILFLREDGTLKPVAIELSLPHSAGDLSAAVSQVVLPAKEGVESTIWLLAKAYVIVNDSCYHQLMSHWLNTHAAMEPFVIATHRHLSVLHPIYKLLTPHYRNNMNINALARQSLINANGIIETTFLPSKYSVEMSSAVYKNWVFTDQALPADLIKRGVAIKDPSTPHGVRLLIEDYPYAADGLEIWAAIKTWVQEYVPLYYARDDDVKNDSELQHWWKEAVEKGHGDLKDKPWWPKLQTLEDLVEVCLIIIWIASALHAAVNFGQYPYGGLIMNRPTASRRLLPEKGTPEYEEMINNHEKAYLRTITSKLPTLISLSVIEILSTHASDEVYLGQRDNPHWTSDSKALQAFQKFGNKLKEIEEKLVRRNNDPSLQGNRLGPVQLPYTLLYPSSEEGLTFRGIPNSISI

hMAO-B = molecular target: T4, hMAO-B (Homo sapiens, UniProt P27338); assay: MAO-B inhibition, fluorometric method; type: biochemical; details: for SI (IC50 hMAO-A/IC50 hMAO-B): selectivity index toward hMAO-B
T4 sequence (P27338 1-520): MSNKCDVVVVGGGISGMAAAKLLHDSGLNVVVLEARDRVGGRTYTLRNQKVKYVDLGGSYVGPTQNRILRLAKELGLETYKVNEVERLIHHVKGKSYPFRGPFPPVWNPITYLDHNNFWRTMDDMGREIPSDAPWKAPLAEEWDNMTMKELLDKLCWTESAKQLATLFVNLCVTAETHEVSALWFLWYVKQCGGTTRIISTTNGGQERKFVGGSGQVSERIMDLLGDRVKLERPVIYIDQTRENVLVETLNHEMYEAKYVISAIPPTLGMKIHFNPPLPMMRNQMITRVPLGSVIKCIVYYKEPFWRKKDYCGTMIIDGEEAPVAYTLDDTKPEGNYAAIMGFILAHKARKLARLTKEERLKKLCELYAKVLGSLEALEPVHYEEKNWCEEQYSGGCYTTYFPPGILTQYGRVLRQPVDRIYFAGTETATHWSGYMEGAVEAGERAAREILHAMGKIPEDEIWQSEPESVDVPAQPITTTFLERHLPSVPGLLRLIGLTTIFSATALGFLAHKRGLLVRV

[3] = tested on: neuroblastoma SH-SY5Y cells; assay: MTT assay for neurotoxicity; type: cell-based; details: 1, 10, 20, 40 and 80 μM, incubation for 48 hours
eeAChE = eeAChE (Electrophorus electricus, UniProt O42275); assay: AChE inhibition, modified Ellman's method; type: biochemical, Electrophorous electricus; details: for SI (IC50 eqBChE/IC50 eeAChE): selectivity index toward eeAChE
Chain of eeAChE (O42275 24-633): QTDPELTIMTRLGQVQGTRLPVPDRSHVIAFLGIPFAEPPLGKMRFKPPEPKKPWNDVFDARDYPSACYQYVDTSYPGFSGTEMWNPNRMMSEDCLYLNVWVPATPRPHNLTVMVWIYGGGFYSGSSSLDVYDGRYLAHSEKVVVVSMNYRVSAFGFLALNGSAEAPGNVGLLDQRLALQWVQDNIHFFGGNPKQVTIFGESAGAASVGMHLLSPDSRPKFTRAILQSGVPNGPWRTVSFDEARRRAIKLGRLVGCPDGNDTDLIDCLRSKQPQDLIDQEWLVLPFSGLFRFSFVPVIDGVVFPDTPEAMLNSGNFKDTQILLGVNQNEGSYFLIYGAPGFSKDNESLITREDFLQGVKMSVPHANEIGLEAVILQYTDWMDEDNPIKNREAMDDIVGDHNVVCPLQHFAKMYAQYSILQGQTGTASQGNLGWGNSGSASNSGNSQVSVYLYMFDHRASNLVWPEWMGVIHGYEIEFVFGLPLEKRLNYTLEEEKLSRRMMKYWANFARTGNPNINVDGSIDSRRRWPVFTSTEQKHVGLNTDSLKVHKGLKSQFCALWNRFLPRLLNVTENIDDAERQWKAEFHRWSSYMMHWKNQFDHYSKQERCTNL

Molecule	IC50 (hMAO-A)	IC50 (COX-2)	Papp at 20 h [1]	Prediction (PAMPA-BBB) (CNS+, CNS−) [1]	Acute toxicity outcome [2]	IC50 (eqBChE)	IC50 (5-LOX)	IC50 (hMAO-B)	SI (IC50 hMAO-A/IC50 hMAO-B) (hMAO-B)	Neurotoxicity (cell viability, MTT) [3]	IC50 (eeAChE)	SI (IC50 eqBChE/IC50 eeAChE) (eeAChE)	IC50 (hMAO-A; read-out: IC50 (μM) ± SEM hMAO-A)	IC50 (COX-2; read-out: IC50 (μM) ± SEM COX-2, NA = no activity found in tested concentration)	Permeability (PAMPA-BBB) Pe(tested) ([1]; pH 7.4, 20 hours, room temperature)	IC50 (eqBChE; read-out: IC50 (μM) ± SEM eqBChE)	IC50 (5-LOX; read-out: IC50 (μM) ± SEM 5-LOX)	IC50 (hMAO-B; read-out: IC50 (μM) ± SEM hMAO-B)	IC50 (eeAChE; read-out: IC50 (μM) ± SEM eeAChE)
NS(=O)(=O)c1ccc(N2N=C(c3ccc(NC(=O)Cc4ccccc4Nc4c(Cl)cccc4Cl)cc3)CC2c2ccc(Cl)cc2)cc1 (stereo not shown) [Compound 39, N-{4-[5-(4-chlorophenyl)-1-(4-sulfamoylphenyl)-4,5-dihydro-1H-pyrazol-3-yl]phenyl}-2-{2-[(2,6-dichlorophenyl)amino]phenyl}acetamide]	0.61 ± 0.08 µM	0.6 ± 0.03 µM	7.55 ± 0.14 ×10⁻⁶ cm/s	CNS+ (‘CNS+’ (prediction of high BBB permeation); Pe (10^−6 cm s^−1) > 4.39)	all animals were found alive	0.91 ± 0.16 µM	0.98 ± 0.01 µM	0.01 ± 0.001 µM	61	no neurotoxicity	0.03 ± 0.01 µM	30.33							
COc1ccc(C(=O)CC2CC(=O)N(CCCSc3nnc(Cc4ccccc4Nc4c(Cl)cccc4Cl)n3-c3ccc(Cl)c(Cl)c3)C2=O)cc1 (stereo not shown) [Compound 31, 1-(3-((4-(3,4-Dichlorophenyl)-5-(2-((2,6-dichlorophenyl)amino)benzyl)-4H-1,2,4-triazol-3-yl)thio)propyl)-3-(2-(4-methoxyphenyl)-2-oxoethyl)pyrrolidine-2,5-dione]	4.63 ± 0.31 µM				all animals were found alive	48.1 ± 1.51 µM	51.3 ± 1.37 µM	0.024 ± 0.001 µM	193		0.08 ± 0.01 µM	601.2							
Cc1nnc2n1-c1ccc(Cl)cc1C(c1ccccc1)=NC2 [Alprazolam, reference compound]				CNS+ (‘CNS+’ (prediction of high BBB permeation); Pe (10^−6 cm s^−1) > 4.39)															
CCn1cc(C(=O)O)c(=O)c2cc(F)c(N3CCNC(C)C3)c(F)c21 (stereo not shown) [Lomefloxacin, reference compound]				CNS− (‘CNS−’ (prediction of low BBB permeation); Pe (10^−6 cm s^−1) < 1.78)															
Sc1nnc(Cc2ccccc2Nc2c(Cl)cccc2Cl)n1-c1ccc(Cl)c(Cl)c1 [Compound 12, 5-(2-(2,6-dichlorophenylamino)benzyl)-4-(3,4 dichlorophenyl)-4H-1,2,4-triazole-3-thiol]	11.3 ± 1.01 µM	0.69 ± 0.13 µM				56.4 ± 1.28 µM	75.5 ± 1.57 µM	13.1 ± 1.22 µM	0.8		2.58 ± 0.41 µM	21.8							
O=C(CC1CC(=O)N(CCCSc2nnc(Cc3ccccc3Nc3c(Cl)cccc3Cl)n2-c2ccc(Cl)c(Cl)c2)C1=O)c1ccccc1 (stereo not shown) [Compound 32, 1-(3-((4-(3,4-Dichlorophenyl)-5-(2-((2,6-dichlorophenyl)amino)benzyl)-4H-1,2,4-triazol-3-yl)thio)propyl)-3-(2-oxo-2-phenylethyl)pyrrolidine-2,5-dione]	6.48 ± 0.39 µM					3.39 ± 0.83 µM	48.3 ± 1.42 µM	0.106 ± 0.004 µM	61.1		0.39 ± 0.08 µM	8.7							
NS(=O)(=O)c1ccc(NCSc2nnc(Cc3ccccc3Nc3c(Cl)cccc3Cl)n2-c2ccc(Cl)c(Cl)c2)cc1 [Compound 15, 4-((5-(2-(2,6-dichlorophenylamino)benzyl)-4-(3,4-dichlorophenyl)-4H-1,2,4-triazol-3-ylthio)methylamino)benzenesulfonamide]	1.21 ± 0.07 µM	0.16 ± 0.04 µM	6.36 ± 0.3 ×10⁻⁶ cm/s	CNS+ (‘CNS+’ (prediction of high BBB permeation); Pe (10^−6 cm s^−1) > 4.39)	all animals were found alive	2.99 ± 0.33 µM	3.42 ± 0.21 µM	0.89 ± 0.33 µM	1.3	low neurotoxicity	0.11 ± 0.01 µM	27.2							
N-(2-((5-(4-(4aH-Phenothiazin-10(10aH)-yl)butylthio)-4-(3,4-dichlorophenyl)-4H-1,2,4-triazol-3-yl)methyl)phenyl)-2,6-dichlorobenzenamine [Compound 33]				CNS+ (‘CNS+’ (prediction of high BBB permeation); Pe (10^−6 cm s^−1) > 4.39)	all animals were found alive				65.7	no neurotoxicity		117.8	8.55 ± 0.26 µM	23 ± 0.92 µM	9.05 ± 0.20 10^−6 cm s^−1	5.89 ± 1 µM	9.11 ± 0.08 µM	0.13 ± 0.01 µM	0.05 µM
